Measurements as given in patent US4840941A, “Method for inhibiting infection of human T-cells” (Kabushiki Kaisha Ueno Seiyaku Oyo Kenkyujo, priority 1986, dated 1989).

Experiments:
HTLV-III = test: Anti-AIDS activity, infected cell rate of MT-4 cells infected with HTLV-III at 6th day; type: cell-based; conditions: for anti-AIDS virus activity: MT-4 cells, HTLV-III
Procedure: To MT-4 cells (30×10^4 /ml) cultured in RPMI-1640 medium containing 10% bovine serum, was inoculated HTLV-III, and the suspension was incubated at 37° C. for 1 hour to cause the adsorption of the virus. The cell:virus ratio was 500:1. The cells were then washed, and cultured with or without various doses of the test substances (same as those of Example 1) at 37° C. under 5% CO2 for 3 days, after which cell growth, viability, and percentage of infected cells were recorded. The infected cells were distinguished from the uninfected cells by indirect immuno-fluorescence method. Thus; the cultured cells were fixed with cold methanol on a slide glass, reacted with antibody to the HTLV-III-specific antigens, and further with the secondary antibody (having fluorescent label). The results are shown in FIGS. 9-29, wherein, , and show the controls without virus; , and show the infection experiments with HTLV-III. The cell growth is indicated in number of cells, the viability (%) in number of viable cells×100/number of total cells, and the infected cell rate (%) in number of fluorescent-positive cells×100/number of total cells.
In order to examine the correlation between the anti-AIDS virus activity and the molecular structure (especially, molecular weight and S-content or number of sulfate group in this case) of various test substances including those used in Examples 1-7, the anti-AIDS activities were evaluated for the various naturally occurring polysaccharides, polysaccharides having sulfate group, mucopolysaccharides, mucopolysaccharide sulfate, and mucopolysaccharide polysulfate. Further, similar experiments were carried out with various other sulfates which were synthetically obtained. The experimental procedures employed are identical to that in preceding experiments. The cultured MT-4 cells were infected with HTLV-III and the inhibitory effects of various test subsutances on the infected cell rate (number of fluorescent cell×100/ total cell, %) were determined at 6th day.

[1] = tested on: Friend leukemia virus (F-MuLV); test: Anti-Friend leukemia virus activity, XC-plaque assay, Procedure 2; type: cell-based; conditions: for Number of plaques per dish: control 35
Procedure: (§1) Anti-FMuLV activity of dextram sulfate (molecular weight: 7000-8000, S-content: 17-20%) was determined by a XC-plaque assay method. BALB3T3 cells were cultured in adhesive form in a 35 mm-dish at 5×10^4 cells/dish (2 ml). After removing the culture medium, a fresh medium with or without indicating concentrations of the test substance (1 ml each) and 0.2 ml of the virus preparation were charged, and the cells were cultured overnight. On the following day, the culture media were replaced with those (2 ml) containing or not containing the above substances, the incubation was continued for three additional days to progress the infection and replication of the virus. After the removal of the medium, the further progression of viral replication was stopped by UV irradiation. To this dish, the suspension of XC-cells (2 ml) was added and cultured for three days and the plaque formation produced by the virus particle induced cell-fusion, was observed.
Procedure 1 was repeated except that after adsorption of the virus in the medium without DS, the non-adsorbed viruses were removed and the culture was carried out in the medium (2 ml) containing or not containing DS.

[2] = tested on: Friend leukemia virus (F-MuLV); test: Anti-Friend leukemia virus activity, XC-plaque assay, Procedure 1; type: cell-based; conditions: for Number of plagues per dish: control 168
Procedure: as §1

MT-4 cells = test: Cytotoxicity, proliferation and viability of MT-4 cells without virus; type: cell-based, human; conditions: no virus
Procedure: MT-4 cells were cultured with or without 1-100 μg/ml of each test substance which is the same as in Example 1 and 3 and the proliferation and viability of cells were recorded.
Without the virus, MT-4 cells were cultured in the same manner as in Example 4 except the test sample was heparin, and proliferation and viability of cells were recorded.

[3] = tested on: reverse transcriptase (authentic sample) derived from Avian Myeloblastosis Virus; test: Inhibition of reverse transcriptase activity (AMV); type: biochemical; conditions: AMV enzyme; 1, 0.1 and 0.01 μg/ml
Procedure: Test substances were assayed for inhibition against the enzyme activity of reverse transcriptase (authentic sample) derived from Avian Myeloblastosis Virus (abbrev. AMV), a kind of retrovirus. Five microliters of […] (template RNA), 4 μl of (dT)12-18 (primer DNA), and 1 μl of water were mixed with 5 μl of 0.5M Tris-CHl (pH 8.4) including 0.1% triton X-100, 5 μl of […], 5 μl of 20 mM-DDT, 5 μl of water, and [^3 H]-TTP (tritium labeled thymidine triphosphate). To this mixture, test substances in solutions (final concentrations: 1, 0.1, and 0.01 μg/ml, 5 μl) or buffer solutions (control, 5 μl) at various doses were added. Then, 5 μl (one unit) of the authentic reverse transcriptase derived from AMV was added and the reaction mixture was incubated at 37° C. for 30 minutes. The reaction was stopped by addition of trichloroacetic acid, and after filtering the reaction mixture, the radioactivity of the polymerized (^3 H-T)n retained on the filter was measured using a liquid scintillation counter. As the test substances, sodium dextran sulfate (molecular weight: 5000), same (molecular weight: 8000), same (molecular weight: 500000), fucoidin, κ-carrageenan, λ-carrageenan, and .iota.-carrageenan were used.
The effects of the test substances on the reverse transcriptase activity of AMV were evaluated by the method described in Example 1.

[4] = Acute toxicity (LD50) in mice; type: in vivo
[5] = 10 μg/ml, 6th day, control 100%
[6] = 100 μg/ml, 6th day, control 100%
[7] = 10 μg/ml, 6th day, control 100%, 8640 min
[8] = 100 μg/ml, 6th day, control 100%, 8640 min
[9] = 1000 μg/ml, 6th day, control 100%

## O=C[C@H](O)[C@@H](O)[C@H](O)[C@H](O)COS(=O)(=O)O [Glucose-6-sulfate]
HTLV-III; Human immunodeficiency virus 1, MT4, 144 h, 10 μg/ml, 6th day, control 100%
  Infected cell rate (% of total cells) at 10 µg/mL: 100%
HTLV-III; Human immunodeficiency virus 1, MT4, 144 h, 100 μg/ml, 6th day, control 100%
  Infected cell rate (% of total cells) at 100 µg/mL: 100%
HTLV-III; Human immunodeficiency virus 1, MT4, 144 h, 1000 μg/ml, 6th day, control 100%
  Infected cell rate (% of total cells) at 1000 µg/mL: 100%

## OC[C@H]1O[C@H](OC[C@H]2O[C@H](O[C@]3(CO)O[C@H](CO)[C@@H](O)[C@@H]3O)[C@H](O)[C@@H](O)[C@@H]2O)[C@H](O)[C@@H](O)[C@H]1O [raffinose]
HTLV-III; 6th day
  anti-AIDS virus activity: neither methylcellulose showed any anti-AIDS virus activities

## .iota.-Carrageenan
HTLV-III; [5]
  Infected cell (%): 100%
HTLV-III; [6]
  Infected cell (%): 31%

## Agarose
HTLV-III; [5]
  Infected cell (%): 100%
HTLV-III; [6]
  Infected cell (%): 100%

## Alginic acid
HTLV-III; [5]
  Infected cell (%): 100%
HTLV-III; [6]
  Infected cell (%): 100%

## Alginic acid sulfate
HTLV-III; [5]
  Infected cell (%): 7%
HTLV-III; [6]
  Infected cell (%): 4%
HTLV-III; 6th day
  anti-AIDS virus activity: particularly strong anti-AIDS virus activities

## Chitin
HTLV-III; [5]
  Infected cell (%): 100%
HTLV-III; [6]
  Infected cell (%): 100%

## Chitin sulfate
HTLV-III; [5]
  Infected cell (%): 100%
HTLV-III; [6]
  Infected cell (%): 81%

## Chitosan
HTLV-III; [5]
  Infected cell (%): 100%
HTLV-III; [6]
  Infected cell (%): 100%

## Chitosan sulfate
HTLV-III; [5]
  Infected cell (%): 1%
HTLV-III; [6]
  Infected cell (%): 1%
HTLV-III; 6th day
  anti-AIDS virus activity: particularly strong anti-AIDS virus activities

## Chondroitin
HTLV-III; [5]
  Infected cell (%): 100%
HTLV-III; [6]
  Infected cell (%): 100%

## Chondroitin-4-sulfate
HTLV-III; [5]
  Infected cell (%): 90%
HTLV-III; [6]
  Infected cell (%): 80%

## Chondroitin-4-sulfate polysulfate
HTLV-III; [5]
  Infected cell (%): 2%
HTLV-III; [6]
  Infected cell (%): 1%
HTLV-III; 6th day
  anti-AIDS virus activity: particularly strong anti-AIDS virus activities

## Chondroitin-6-sulfate
HTLV-III; [5]
  Infected cell (%): 100%
HTLV-III; [6]
  Infected cell (%): 100%

## Chondroitin-6-sulfate polysulfate
HTLV-III; [5]
  Infected cell (%): 2%
HTLV-III; [6]
  Infected cell (%): 1%
HTLV-III; 6th day
  anti-AIDS virus activity: particularly strong anti-AIDS virus activities

## Dermatan sulfate
HTLV-III; [5]
  Infected cell (%): 100%
HTLV-III; [6]
  Infected cell (%): 80%

## Dextran [Dextran (molecular weight 9,000)]
HTLV-III; [5]
  Infected cell (%): 100%
HTLV-III; [6]
  Infected cell (%): 100%

## Dextran sulfate [Dextran sulfate (molecular weight 3,500, S-content 6)]
HTLV-III; [7]
  Infected cell (%): 100%
HTLV-III; [8]
  Infected cell (%): 82%
HTLV-III; [9]
  Infected cell (%): 1%

## Dextran sulfate [Dextran sulfate (molecular weight 8,000, S-content ≈14)]
HTLV-III; [7]
  Infected cell (%): 25%
HTLV-III; [8]
  Infected cell (%): 0%

## Fucoidin
HTLV-III; [5]
  Infected cell (%): 32%
HTLV-III; [6]
  Infected cell (%): 1%

## Glucose-polysulfate
HTLV-III; [5]
  Infected cell (%): 100%
HTLV-III; [6]
  Infected cell (%): 100%
HTLV-III; [9]
  Infected cell (%): 100%

## Heparitin sulfate
HTLV-III; [5]
  Infected cell (%): 100%
HTLV-III; [6]
  Infected cell (%): 90%

## Hyaluronic acid
HTLV-III; [5]
  Infected cell (%): 100%
HTLV-III; [6]
  Infected cell (%): 100%

## Hyaluronic acid sulfate
HTLV-III; [5]
  Infected cell (%): 100%
HTLV-III; [6]
  Infected cell (%): 70%

## Keratan sulfate
HTLV-III; [5]
  Infected cell (%): 100%
HTLV-III; [6]
  Infected cell (%): 60%

## N--acetylglucosamine polysulfate
HTLV-III; [5]
  Infected cell (%): 100%
HTLV-III; [6]
  Infected cell (%): 100%
HTLV-III; [9]
  Infected cell (%): 100%

## Sodium dextran sulfate
[1]; DS 0.01 μg/ml
  Inhibition: 6%
  Number of plaques per dish: 33
[1]; DS 0.1 μg/ml
  Inhibition: 45%
  Number of plaques per dish: 19
[1]; DS 1 μg/ml
  Number of plaques per dish: 14
[1]; DS 10 μg/ml
  Inhibition: 52%
  Number of plaques per dish: 17
[1]; DS 100 μg/ml
  Inhibition: 54%
  Number of plaques per dish: 16
[1]; DS 500 μg/ml
  Number of plaques per dish: 0
[2]; 100 μg/ml of DS
  plaque formation: not detected
[2]; 1-100 μg/ml
  inhibition of the formation of plaque: ≥ 90%
[2]; DS 1 μg/ml
  Inhibition: 92%
  Number of plagues per dish: 14
[2]; DS 5 μg/ml
  Inhibition: 93%
  Number of plagues per dish: 12
[2]; DS 10 μg/ml
  Inhibition: 93%
  Number of plagues per dish: 11
[2]; DS 50 μg/ml
  Inhibition: 92%
  Number of plagues per dish: 13
[2]; DS 100 μg/ml
  Inhibition: 96%
  Number of plagues per dish: 6
[2]; DS 1000 μg/ml
  Inhibition: 100%
  Number of plagues per dish: 0

## Sodium dextran sulfate [Sodium dextran sulfate (molecular weight: 500,000 S-content:]
HTLV-III; 10 μg/ml, 6th day; control 100%; S-content ≈16), 8640 min
  Infected cell (%): 20%
HTLV-III; [6]
  Infected cell (%): 0%

## Sodium dextran sulfate [Sodium dextran sulfate (molecular weight: 5000, S-content: 1]
HTLV-III; 10 μg/ml, 6th day; control 100%; S-content ≈13), 8640 min
  Infected cell (%): 18%
HTLV-III; [6]
  Infected cell (%): 0%
MT-4 cells; 1 μg/ml
  Cell number: 123 × 10^4 cells/ml
MT-4 cells; 10 μg/ml
  Cell number: 127 × 10^4 cells/ml
  Viability: 92%
MT-4 cells; 100 μg/ml
  Cell number: 121 × 10^4 cells/ml
  Viability: 93%

## colominic acid
HTLV-III; 6th day
  anti-AIDS virus activity: neither methylcellulose showed any anti-AIDS virus activities

## dextran sulfate
HTLV-III; 6th day
  anti-AIDS virus activity: particularly strong anti-AIDS virus activities

## inulin
HTLV-III; 6th day
  anti-AIDS virus activity: neither methylcellulose showed any anti-AIDS virus activities

## keratan polysulfate
[3]
  reverse transcriptase inhibition activity: stronger activity than the natural substances

## methylcellulose
HTLV-III; 6th day
  anti-AIDS virus activity: neither methylcellulose showed any anti-AIDS virus activities

## pectin
HTLV-III; 6th day
  anti-AIDS virus activity: neither methylcellulose showed any anti-AIDS virus activities

## sodium chondroitin sulfate
[4]; intraperitoneally
  acute toxicity (LD50): ≥ 4,000 mg/kg
[4]; orally
  acute toxicity (LD50): ≥ 7,500 mg/kg

## κ-carrageenan [Carrageenan 20%enan 80% + λ]
HTLV-III; [5]
  Infected cell (%): 95%
HTLV-III; [6]
  Infected cell (%): 1%

## λ-Carrageenan
HTLV-III; [5]
  Infected cell (%): 3%
HTLV-III; [6]
  Infected cell (%): 1%
HTLV-III; 6th day
  anti-AIDS virus activity: particularly strong anti-AIDS virus activities
